The values that follow are results of earlier work, collected in article PMC8198792, “Prediction of Anticancer Peptides with High Efficacy and Low Toxicity by Hybrid Model Based on 3D Structure of Peptides” (International Journal of Molecular Sciences, 2021).

The data set deals with cancer cell lines. Set-up: method as in 6 sources, ref CancerPPD [45] and SATPdb ||| ref CancerPPD/SATPdb ||| ref CancerPPD, SATPdb, Swissprot (PDB) ||| ref CancerPPD/SATPdb/Swissprot(PDB) ||| ref CancerPPD / SATPdb ||| ... As to conditions: cited from earlier work. The text has this: Supplement ijms-22-05630-s001.zip/ACPs(seguence).xlsx, sheet "D1" | column: Activity || Supplement ijms-22-05630-s001.zip/ACPs(seguence).xlsx, sheet "D2" | column: Activity || Supplement ijms-22-05630-s001.zip/ACPs(seguence).xlsx, sheet "D3" | column: Activity || (+ 2 further places)

Where [1] appears, read: ACPs dataset D1, label 1 = ACP, 0 = non-ACP (non-anticancer AMPs from SATPdb), ref CancerPPD/SATPdb.
[2] abbreviates: ACPs dataset D4 (sheet "D4"), label 1 = ACP, 0 = non-ACP, ref CancerPPD / SATPdb.
Where [3] appears, read: ACPs dataset D1, 1 = ACP (positive), 0 = non-ACP (negative), label taken from databases, ref CancerPPD [45] and SATPdb.
The mark [4] stands for this setting: ACPs dataset D4 (sheet "D4"), label 1 = ACP (CancerPPD ID), 0 = non-ACP (non-anticancer AMP, SATPdb ID), ref CancerPPD [45] and SATPdb.
[5] abbreviates: ACPs dataset D3 (sheet "D3"), label 1 = ACP, 0 = non-ACP, ref CancerPPD/SATPdb.
The mark [6] stands for this setting: ACPs dataset D5, sheet "D5", label 1 = ACP, 0 = non-ACP, ref CancerPPD [45] and SATPdb.
Setting [7] is: ACPs dataset D3 (supplement sheet "D3"), 1 = ACP, 0 = non-ACP, ref CancerPPD [45] and SATPdb.
[8] abbreviates: ACPs dataset D5 (sheet "D5"), label 1 = ACP (positive set), 0 = non-ACP (negative set), ref CancerPPD [45] and SATPdb.
Where [9] appears, read: ACPs dataset D4 (sheet "D4"), label 1 = ACP, experimentally validated ACPs, ref CancerPPD [45] and SATPdb.
Setting [10] is: ACPs dataset D5 (sheet "D5"), label 1 = ACP (positive set), sequences with CancerPPD/SATPdb ID, ref CancerPPD, SATPdb.
[11] abbreviates: ACPs dataset sheet D2, 1 = ACP (CancerPPD/SATPdb ID), 0 = non-ACP (Swissprot/PDB ID), ref CancerPPD, SATPdb, Swissprot (PDB).
[12] abbreviates: ACPs dataset D2 (supplement ACPs(seguence).xlsx, sheet D2), dataset label 1/0 (ACP / non-ACP), entries identified by Swissprot(PDB ID), ref CancerPPD/SATPdb/Swissprot(PDB).

Where two headings read alike, the source gives them in different places.

Take VVKCSYRLGSPDSQCN [satpdb13432]: the Activity reads like this: under setting [1], 0; under setting [2], 0.

Turning to GILNTIKSIASKLKRKAK [satpdb10259], the Activity was 0 under setting [3] and 0 under setting [4].

As to “GVFGLLAKAALKGASKLIPHLLPSRQQ [satpdb12176]”, the Activity is, setting by setting: under setting [1], 0; under setting [4], 0.

Turning to GLPRKILAAIAKKK [satpdb14133], the Activity was 0 under setting [5], 0 under setting [2] and 0 under setting [6].

As for “RGFRKHFNKLVKKVKHTISETAHVAKDTAVIAG [satpdb11665]”, the Activity is 0 under setting [7], 0 under setting [2] and 0 under setting [6].

GKWMSLLKHIWK [compound 3655]: the Activity runs as follows: under setting [7], 1; under setting [4], 1; under setting [8], 1.

For the substance GMATKAGTAFGKAAKAIIGAAL [satpdb11334], the Activity was 0 under setting [3] and 0 under setting [4].

On to “GIGGVLLSAGKAALKGLAKVLAEKYAN [compound 4400]”, for which the Activity is reported as 1 under setting [3], 1 under setting [9], 1 under setting [10] and 1 under setting [11].

Regarding “QLGELIQQGGQKIVEKIQKIGQRIRDFFSNLRPRQEA [satpdb13050]”, the Activity is on record as 0 under setting [1] and 0 under setting [2].

In the case of KWKLFKKIPKFLHLAKKF [compound 3290], the Activity reads like this: under setting [3], 1; under setting [9], 1; under setting [10], 1; under setting [11], 1.

Regarding KILRGVAKKIMRTFLRRILTGKK [compound 3321], the Activity is, setting by setting: under setting [7], 1; under setting [4], 1; under setting [8], 1.

FAKKFAKKFKKFAKKFAKFAFAF [compound 1910]: the Activity under setting [7] is given as 1, the Activity under setting [9] is reported as 1 and the Activity under setting [10] is 1.

“NYQWVPYQGRVPYPRGGLLkLLKklLKKLlKL [compound 3344]”: the Activity reads like this: under setting [7], 1; under setting [4], 1; under setting [8], 1.

Regarding TTITGKKCQSWAAMFPHRHSKT [satpdb18336], the Activity under setting [3] was 1, the Activity under setting [9] was 1, the Activity under setting [10] was 1 and the Activity under setting [11] was 1.

As to “KNWKK-Aib-LKK-Aib-IK-Aib-VK [compound 3503]”, the Activity by setting is: under setting [7], 1; under setting [4], 1; under setting [8], 1.

On to “TFRAFLSSRLQDLYSIVRRADRAAV [compound 4202]”, for which the Activity reads like this: under setting [3], 1; under setting [9], 1; under setting [10], 1; under setting [11], 1.

For RGGRLCYARRRFAVCVGR [satpdb14374], the Activity is given as 0 under setting [5], 0 under setting [2] and 0 under setting [6].

In the case of FISAIASFLGKFL [satpdb11448], the Activity by setting is: under setting [1], 0; under setting [4], 0.

For the substance KWKLFKKIPKFLHLA [compound 1134], the Activity runs as follows: under setting [7], 1; under setting [4], 1; under setting [8], 1.

As to “GIINTLQKYYSRVRGGRSAVLSSLPKEEQIGKSSTRGRKSSRRKK [satpdb11018]”, the Activity reads like this: under setting [3], 0; under setting [4], 0.

For HGSTTLRDITV [satpdb28282], the Activity by setting is: under setting [3], 1; under setting [9], 1; under setting [10], 1; under setting [11], 1.

Take GLFDVIKKVASVIKGL [compound 4075]: the Activity is, setting by setting: under setting [7], 1; under setting [4], 1; under setting [8], 1.

In the case of GDVIDTDRDIDR [satpdb14246], the Activity is on record as 1 under setting [3], 1 under setting [9], 1 under setting [10] and 1 under setting [11].

As to RCRLAERRQIAK [satpdb18274], the Activity runs as follows: under setting [3], 1; under setting [9], 1; under setting [10], 1; under setting [11], 1.

As to ALLHHGLNCAKGVLA [satpdb12694], the Activity runs as follows: under setting [1], 0; under setting [4], 0.

As for PRAWEYWLRLME [compound 4582], the Activity under setting [3] is recorded as 1, the Activity under setting [9] is on record as 1, the Activity under setting [10] was 1 and the Activity under setting [11] is 1.

Consider “DGVKLCDVPSGTWSGHCGSSSKCSQQCKDREHFAYGGACHYQFPSVKCFCKRQC [2N2Q NMR - A 1-54]”, for which the Activity is reported as 0 under setting [12] and 0 under setting [6].

With LCYCRRRFCGCV [satpdb12860], the Activity under setting [1] is listed as 0 and the Activity under setting [2] was 0.

As for “KWKSFlKTFKSlKKTVlHTlLKAISS [compound 3772]”, the Activity by setting is: under setting [7], 1; under setting [4], 1; under setting [8], 1.

With “MELVKVVFMGWFKNESMFTKEITMMKDDVQWATTQYAEVNKALVKAFIDDKKVCEVDCRG [5HY3 X-ray 3.10,B,1-60]”, the Activity is, setting by setting: under setting [12], 0; under setting [6], 0.

Turning to “GVGDLIRKAV SVIKNIV [6GS3 X-ray 1.45 A/B 1-17]”, the Activity is on record as 0 under setting [8] and 0 under setting [11].

Consider “ALWKNMLKGIGKLAGQAALGAVKTLVGA [compound 1706]”, for which the Activity under setting [3] is 1, the Activity under setting [9] is on record as 1, the Activity under setting [10] was 1 and the Activity under setting [11] is recorded as 1.

On to “MVEPLLSGIVLGLIVVTLAGLFYAAYKQYKRPNELGG [4OGQ X-ray 2.50,G,1-37]”, for which the Activity was 0 under setting [12] and 0 under setting [8].

For the substance “FIHHIFRGIV HAGRSIGRFL TG [2MCW NMR - A 1-22]”, the Activity is listed as 0 under setting [8] and 0 under setting [11].

Consider “VDENAEDTHGLCGEKTCSPAQVCLNNECACTAIRCMIFCPNGFKVDENGCEYPCTCA [3BG4 X-ray 2.50 D 1-57]”, for which the Activity is 0 under setting [12] and 0 under setting [6].

With GRLKRLRKKLKKLLKKLS [satpdb12346], the Activity is recorded as 0 under setting [5], 0 under setting [2] and 0 under setting [6].

TEWTACSKSCGMGFSTRV [satpdb28517]: the Activity reads like this: under setting [3], 1; under setting [9], 1; under setting [10], 1; under setting [11], 1.

In the case of GLLGPLLKIAKKVGSNLL [satpdb10622], the Activity is, setting by setting: under setting [7], 0; under setting [2], 0; under setting [6], 0.

Consider VIFEWTLLQVLSESDQDQSLEVFLT [satpdb18497], for which the Activity is 1 under setting [3], 1 under setting [9], 1 under setting [10] and 1 under setting [11].

AKRHHGYKRKFH [compound 1423]: the Activity is, setting by setting: under setting [7], 1; under setting [9], 1; under setting [10], 1.

With TSWSQCSKTCGTGISTRV [satpdb19109], the Activity is recorded as 1 under setting [3], 1 under setting [9], 1 under setting [10] and 1 under setting [11].

On to “KWKSFLKTFKSLKkTVLHTLLKAISS [compound 3760]”, for which the Activity under setting [7] is listed as 1, the Activity under setting [4] is 1 and the Activity under setting [8] is listed as 1.

Regarding KFPKFRRGIPFLFV [satpdb10093], the Activity under setting [3] was 0 and the Activity under setting [4] is on record as 0.

Consider “MSGELLNAALLSFGLIFVGWALGALLLKIQGAEE [4OGQ X-ray 2.50，F，1-34]”, for which the Activity by setting is: under setting [8], 0; under setting [11], 0.

As for “RRPKGRGKRRREKQRPTDCHLCGDAVPRR [satpdb17014]”, the Activity is, setting by setting: under setting [3], 1; under setting [9], 1; under setting [10], 1; under setting [11], 1.

Turning to “ASFPWSCPSLSGVCRKVCLPTELFFGPLGCGKGFLCGVSHFL [satpdb13301]”, the Activity by setting is: under setting [1], 0; under setting [2], 0.

Regarding ITIPPIVKNTLKKFIKGAVSALMS [satpdb11263], the Activity is, setting by setting: under setting [3], 0; under setting [4], 0.
